Experimental data from publication PMC11219871, “Epigenetic-based differentiation therapy for Acute Myeloid Leukemia” (Nature Communications, 2024).
“And” between values parts separate entries of the source, which are not always exact repeats. Equal entries are not always repeated. Where two headings read alike, the source gives them in different places.

Experiments:
Type in all cases: cell-based, human
HL-60 [1] = test: Differentiation-apoptosis assay, CD11b / annexin-V / Sytox Green / myeloid markers flow cytometry; design: Cell viability (%): concentration or dose not given beside the values; CD11b levels: unit not given here; conditions: for Annexin V (%) Replicate 1 / Annexin V (%) Replicate 2 / Annexin V (%) Replicate 3 / CD11b (%) Replicate 1 / CD11b (%) Replicate 2 / CD11b (%) Replicate 3: HL-60, daily 25% GI50, 48 h; for CD11b (%) / Cell viability (%): HL-60, 48 h treatment, replicates 1-3 (Suppl. Fig. 5A)
Description: Next, the cells were washed twice with phosphate-buffered saline (PBS) and resuspended in 1X Binding Buffer at a concentration of 1 × 10^6 cells/mL. […] Finally, after the addition of 400 µL of 1X Binding Buffer to each tube, samples were collected on a BD FACSCanto flow cytometer (Becton Dickinson, San Jose, CA, USA) and analyzed using FlowJo software.
Then, 1 million cells (volume of 250 µL) were added and incubated for 30 min at room temperature in darkness. After 10 min incubation at room temperature with 2 mL of FACSLysing 1X, cells were centrifuged at 540 g for 5 min and washed twice with FACSBuffer. Finally, after centrifugation at 540 g for 5 min cells were resuspended in FACSBuffer.

ML-2 [2] = test: as above; design: Cell viability: concentration or dose not given beside the values; CD11b levels: unit not given here; conditions: for CD11b / Cell viability: ML-2, 48 h, replicates (Fig 4A)
Description: (§1) Next, the cells were washed twice with phosphate-buffered saline (PBS) and resuspended in 1X Binding Buffer at a concentration of 1 × 10^6 cells/mL. An 8-µL aliquot of APC-CD11b (BD Pharmingen, Franklin Lakes, NJ, USA) and 1 µL of FITC annexin-V (AV) (BD Pharmingen, Franklin Lakes, NJ, USA) antibodies were added and incubated for 15 min at room temperature in the dark. Finally, after the addition of 400 µL of 1X Binding Buffer to each tube, samples were collected on a BD FACSCanto flow cytometer (Becton Dickinson, San Jose, CA, USA) and analyzed using FlowJo software.
(§2) For the rest of experiments, the mix of antibodies (2 µL of BV786-CD13, Cat No, 744748 BD; 1 µL of diluted 1:10 antibody of PB-HLADR, Cat No 307633, Biolegend; 5 µL of APCH7-CD14, Cat No 641394, BD) was added to 10 µL of Brilliant Stain Buffer Plus (Becton Dickinson, San Jose, CA, USA). Then, 1 million cells (volume of 250 µL) were added and incubated for 30 min at room temperature in darkness. After 10 min incubation at room temperature with 2 mL of FACSLysing 1X, cells were centrifuged at 540 g for 5 min and washed twice with FACSBuffer. Finally, after centrifugation at 540 g for 5 min cells were resuspended in FACSBuffer.

MV4-11 [3] = test: as above; design: Cell viability (%): concentration or dose not given beside the values; CD11b levels: unit not given here; conditions: for CD11b (%) / Cell viability (%): MV4-11, 48 h treatment, replicates 1-3 (Suppl. Fig. 5A)
Description: as §1, §2

MOLM-13 [4] = test: as above; design: Cell viability (%): concentration or dose not given beside the values; CD11b levels: unit not given here; conditions: for CD11b (%) / Cell viability (%): MOLM-13, 48 h treatment, replicates 1-3 (Suppl. Fig. 5A)
Description: as §1, §2

[5] = tested on: LINE-1 DNA methylation in HL-60; test: LINE-1 pyrosequencing; conditions: HL-60, 10 days
Description: (§3) DNA methylation of the repetitive element LINE-1 was analyzed using a pyrosequencing technique. […] Cells were washed twice with PBS, and then genomic DNA was extracted using a DNA Kit (Nucleo Spin Tissue, Cat No 74095250, Macherey-Nagel) following the manufacturer's instructions. DNA purity and concentration were measured using a NanoDrop spectrophotometer (Thermo Scientific). A 1 μg amount of genomic DNA was treated and modified using a CpGenome DNA modification Kit (Cat No S7820, Chemicon International) following the manufacturer's instructions. […] [NT]) in a final volume of 25 μL. The resulting biotinylated PCR products were immobilized to Streptavidin Sepharose ® High-Performance beads (GE Healthcare) and processed to yield high-quality ssDNA using the PyroMark Vacuum Prep Workstation (Biotage) according to the manufacturer's instructions. The pyrosequencing reactions were performed using the PyromarkTM ID (Biotage), and sequence analysis was performed using the PyroQ-CpG analysis software (Biotage).

[6] = tested on: LINE-1 DNA methylation in MV4-11; test: LINE-1 pyrosequencing; conditions: MV4-11, 5 days
Description: as §3

[7] = tested on: LINE-1 DNA methylation in ML-2; test: LINE-1 pyrosequencing; conditions: ML-2, 10 days
Description: as §3

[8] = tested on: LINE-1 DNA methylation in MOLM-13; test: LINE-1 pyrosequencing; conditions: MOLM-13, 5 days
Description: as §3

HL-60 [9] = test: Cell proliferation assay: GI50; conditions: read-out: GI50
Description: (§4) Cell proliferation was analyzed using the CellTiter 96 Aqueous One Solution Cell Proliferation Assay (Promega, Madison, WI). This is a colorimetric method for determining the number of viable cells in proliferation. For the assay, suspension cells were cultured in triplicate at a density of 1 × 10^6 cells/mL in 96-well plates (100.000 cells/well, 100 µL/well), using only the 60 inner wells to avoid any border effects. […] Then, the cells were incubated with 100 μL/well of medium and 20 μL/well of CellTiter 96 Aqueous One Solution reagent for 1–3 h. […] The background absorbance was measured in wells with only cell line medium and solution reagent. First, the average of the absorbance from the control wells was subtracted from all other absorbance values. Data were calculated as the percentage of total absorbance of treated cells/absorbance of non-treated cells. The GI50 values of the different compounds were determined using non-linear regression plots made with GraphPad Prism v5 software.

MV4-11 [10] = test: Cell proliferation assay: GI50
Description: as §4

ML-2 [11] = test: Cell proliferation assay: GI50
Description: as §4

MOLM-13 [12] = test: Cell proliferation assay: GI50
Description: as §4

## COc1cc2c(cc1OCCCN1CCCC1)N=C(N)C21CCC1 [Compound A-366, A-366, reference compound]
HL-60 [1]
  Annexin V (%) Replicate 1: 1.45%
  Annexin V (%) Replicate 2: 1.05%
  Annexin V (%) Replicate 3: 1.10%
  CD11b (%) Replicate 1: 9.70%
  CD11b (%) Replicate 2: 5.40%
  CD11b (%) Replicate 3: 4.85%

## CCCc1nn(C)c2c(=O)[nH]c(-c3cc(S(=O)(=O)N4CCN(C)CC4)ccc3OCC)nc12 [Sildenafil, reference compound]
HL-60 [1]
  Annexin V (%) Replicate 1: 0.22%
  Annexin V (%) Replicate 2: 0.14%
  Annexin V (%) Replicate 3: 0.18%
  CD11b (%) Replicate 1: 0.00%
  CD11b (%) Replicate 2: 4.74%
  CD11b (%) Replicate 3: 4.47%

## CCNC(=O)C[C@@H]1N=C(c2ccc(Cl)cc2)c2cc(OC)ccc2-n2c(C)nnc21 [Molibresib, reference compound]
HL-60 [1]; HL-60 treated daily for 48 h, replicates (Fig 6D)
  CD11b levels: 14.6 and 15.6 and 12.7
ML-2 [2]; ML-2 treated daily for 48 h, replicates (Fig 6E)
  CD11b levels: 15.1 and 13.2 and 11.7
MV4-11 [3]; MV4-11, daily treatment for 48 h, replicates 1-3 (Suppl. Fig. 9A)
  CD11b levels: 12.1 and 15.4 and 13.7
MOLM-13 [4]; MOLM-13, daily treatment for 48 h, replicates 1-3 (Suppl. Fig. 9A)
  CD11b levels: 13.1 and 10.8 and 12.3

## Nc1ncn([C@H]2C[C@H](O)[C@@H](CO)O2)c(=O)n1 [Decitabine, reference compound]
[5]
  LINE-1 methylation (%) CG Position 1: 35% and 39%
  LINE-1 methylation (%) CG Position 2: 32% and 40%
  LINE-1 methylation (%) CG Position 3: 43% and 55%
  LINE-1 methylation (%) CG Position 4: 44% and 52%
  LINE-1 methylation (%) CG Position 5: 33% and 37%
[6]
  LINE-1 methylation (%) CG Position 1: 53% and 47%
  LINE-1 methylation (%) CG Position 2: 50% and 54%
  LINE-1 methylation (%) CG Position 3: 53% and 55%
  LINE-1 methylation (%) CG Position 4: 55% and 53%
  LINE-1 methylation (%) CG Position 5: 43% and 45%
[7]
  LINE-1 methylation (%) CG Position 1: 36% and 34%
  LINE-1 methylation (%) CG Position 2: 39% and 33%
  LINE-1 methylation (%) CG Position 3: 42%
  LINE-1 methylation (%) CG Position 4: 41% and 39%
  LINE-1 methylation (%) CG Position 5: 32% and 28%
[8]
  LINE-1 methylation (%) CG Position 1: 36% and 38%
  LINE-1 methylation (%) CG Position 2: 37% and 43%
  LINE-1 methylation (%) CG Position 3: 48% and 46%
  LINE-1 methylation (%) CG Position 4: 46% and 54%
  LINE-1 methylation (%) CG Position 5: 37% and 35%
HL-60 [1]
  Annexin V (%) Replicate 1: 4.10%
  Annexin V (%) Replicate 2: 3.17%
  Annexin V (%) Replicate 3: 2.48%
  CD11b (%) Replicate 1: 7.50%
  CD11b (%) Replicate 2: 9.90%
  CD11b (%) Replicate 3: 9.03%

## Cn1cc(CNCC2CCN(c3ncc(C(=O)NO)cn3)CC2)c2ccccc21 [Quisinostat, reference compound]
HL-60 [9]; HL-60, replicates 1-3, nM for Panobistat and Quisinostat
  GI50: 138 nM and 103 nM
HL-60 [9]; Homo sapiens, HL-60, HL-60, replicates 1-3, nM for Panobistat and Quisinostat
  GI50: 95.7 nM
HL-60 [9]; Homo sapiens, HL-60, HL-60
  GI50: 112 nM
MV4-11 [10]; Homo sapiens, MV4-11, MV4-11
  GI50: 13 nM
MV4-11 [10]; MV4-11, replicates 1-3, nM for Panobistat and Quisinostat
  GI50: 13.1 nM and 14.3 nM
ML-2 [11]; Homo sapiens, ML-2, ML-2
  GI50: 76 nM
ML-2 [11]; Homo sapiens, ML-2, ML-2, replicates 1-3, nM for Panobistat and Quisinostat
  GI50: 67.3 nM
ML-2 [11]; ML-2, replicates 1-3, nM for Panobistat and Quisinostat
  GI50: 89.5 nM and 71.2 nM
MOLM-13 [12]; Homo sapiens, MOLM-13, MOLM-13
  GI50: 67 nM
MOLM-13 [12]; Homo sapiens, MOLM-13, MOLM-13, replicates 1-3, nM for Panobistat and Quisinostat
  GI50: 58.9 nM
MOLM-13 [12]; MOLM-13, replicates 1-3, nM for Panobistat and Quisinostat
  GI50: 73.6 nM and 68.5 nM
HL-60 [1]
  CD11b (%): 36.8% and 39.6% and 35.4%
  Cell viability (%): 84.1% and 72.6% and 75.5%
ML-2 [2]
  CD11b: 35.4% and 25.9% and 25.4%
  Cell viability: 86.7% and 75.1% and 77.3%
MV4-11 [3]
  CD11b (%): 16.1% and 10.9% and 10.0%
  Cell viability (%): 83.6% and 79% and 74.7%
MOLM-13 [4]
  CD11b (%): 55.3% and 50.4% and 58.7%
  Cell viability (%): 64.2% and 57.7% and 56.3%

## Nc1ccccc1NC(=O)c1ccc(CNC(=O)OCc2cccnc2)cc1 [Entinostat, reference compound]
HL-60 [9]; HL-60, replicates 1-3, µM for the other inhibitors
  GI50: 8300 nM and 7300 nM
HL-60 [9]; Homo sapiens, HL-60, HL-60, replicates 1-3, µM for the other inhibitors
  GI50: 7800 nM
MV4-11 [10]; Homo sapiens, MV4-11, MV4-11, replicates 1-3, µM for the other inhibitors
  GI50: 3300 nM
MV4-11 [10]; MV4-11, replicates 1-3, µM for the other inhibitors
  GI50: 2800 nM and 3000 nM
ML-2 [11]; Homo sapiens, ML-2, 48 h
  GI50: 9100 nM
ML-2 [11]; Homo sapiens, ML-2, ML-2, replicates 1-3, µM for the other inhibitors
  GI50: 6600 nM
ML-2 [11]; ML-2, replicates 1-3, µM for the other inhibitors
  GI50: 10900 nM and 9800 nM
MOLM-13 [12]; Homo sapiens, MOLM-13, 48 h
  GI50: 2400 nM
MOLM-13 [12]; Homo sapiens, MOLM-13, MOLM-13, replicates 1-3, µM for the other inhibitors
  GI50: 2600 nM
MOLM-13 [12]; MOLM-13, replicates 1-3, µM for the other inhibitors
  GI50: 2000 nM
HL-60 [1]
  CD11b (%): 32.6% and 37.2% and 30.1%
  Cell viability (%): 38.4% and 38.5% and 40.7%
ML-2 [2]
  CD11b: 25.1% and 39.8% and 36.7%
  Cell viability: 59.1% and 65.7% and 58.8%
MV4-11 [3]
  CD11b (%): 41.0% and 45.6% and 43.2%
  Cell viability (%): 35.1% and 39.2% and 39.7%
MOLM-13 [4]
  CD11b (%): 76.1% and 83.2% and 84.3%
  Cell viability (%): 47.7% and 56.4% and 56.1%
